According to patent USRE37781E1, “Substituted cyclic carbonyls and derivatives thereof useful as retroviral protease inhibitors” (DuPont Pharmaceuticals Company, priority 1991, dated 2002):
Several values for one entry are separate records, joined by “and”; a condition that tells them apart may be missing. Equal entries are not always repeated.

Tests used:
[1] = molecular target: single-chain tethered dimer of HIV protease (Human immunodeficiency virus 1, UniProt P04585); test: biochemical; assay type: biochemical
Protocol: HIV Protease Inhibition Assay—HPLC Method
Active protease was prepared as described therein by extraction with 67% acetic acid, dilution 33-fold with water, dialysis against water and then against a “refolding buffer” consisting of 20 mM MES, 1 mM dithiothreitol and 10% glycerol. Protease was stored as a stock preparation at 10 uM in refolding buffer.
Substrate: Peptide of sequence: aminobenzoyl-Ala-Thr-His-Gln-Val-Tyr-Phe(NO2)-Val-Arg-Lys-Ala containing p-nitrophenylalanine, was prepared by solid phase synthesis as previously described Cheng et al., op.cit. Stock solutions of 2 mM substrate were prepared in DMSO.
Inhibitory compounds were dissolved in sufficient DMSO to make 3 mM stock solutions. All further dilutions were prepared in “assay buffer”: 1M NaCl, 50 mM MES, pH 5.5, 1 mM EDTA, 1 mM DTT, […] glycerol.
Enzyme reaction: In a 2 ml screw-cap centrifuge tube were added 50 ul protease (final concentration 0.25 nM) and 0.1 ml inhibitory compound (final concentration […]). After 15 min preincubation at room temperature, the reaction was started with the addition of 0.05 ml substrate (final concentration 5 uM). Incubation was carried out at 30 C. for 1 hr. The reaction was stopped with 1 ml 0.1M ammonium hydroxide.
HPLC measurement of product formation: The product (aminobenzoyl-Ala-Thr-His-Gln-Val-Tyr) was separated from substrate on a Pharmacia MonoQ anion exchange column. The injection volume was 0.2 ml. The mobile phases were: A (20 mM trisHCl, pH 9.0, 0.02% sodium Azide, 10% acetonitrile), B (20 mM tris HCl, pH 9.0, 0.02% sodium azide, 0.5M ammonium formate, 10% acetonitrile). The mobile phases were pumped at 1 ml/min, with a gradient from 0 to 30% B in 5 min, 100% B for 4 min to wash the column, and a re-equilibration for 4 min. The retention time of the product was 3.6 min. Detection with a Shimadzu model RF535 fluorescence monitor was at 330 nm (excitation) and 430 (emission).

[2] = system: HIV-1 (RF) in MT-2 cells; test: microbe, parasite or virus in culture; assay type: cell-based; conditions: Human immunodeficiency virus 1, MT2, HIV RNA assay, HIV-1 infected MT-2 cells; class symbols; read-out: IC90
Outline: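 Read-out: gag and pol viral RNA captured by 5′-biotinylated oligonucleotides on streptavidin-coated wells, detected with alkaline phosphatase-linked reporter oligonucleotides, calibrated against BH10 in vitro transcripts. Virus stocks (RF, MN, IIIB) come from H9 cultures; MT-2 host cells kept in RPMI 1640, 5% FCS.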

SMILES	Ki [1]	IC90 [2]	melting point
O=C1NC(Cc2ccccc2)C(O)C(O)C(Cc2ccccc2)N1Cc1ccc(F)cc1 (stereo not drawn) [Example 6ZF]	< 10 nM	< 10 µg/mL	188.9 °C
O=C1c2ccccc2C(O)C(O)c2ccccc21 (stereo not drawn) [Example 26A, 5H-dibenzo [A,D] cyclohepten-5-one-10,11-dihydro-10, 11-diol]	> 1000 nM		107.5 to 108 °C and 107.5 to 107.9 °C
O=C1N(Cc2cccc(OCc3ccccc3)c2)C(Cc2ccccc2)C(O)C(O)C(Cc2ccccc2)N1Cc1cccc(OCc2ccccc2)c1 (stereo not drawn) [Example 5F]	10 to 1000 nM		165 to 166 °C
CCOc1cccc(CN2C(=O)N(Cc3cccc(OCC)c3)C(Cc3ccccc3)C(O)C(O)C2Cc2ccccc2)c1 (stereo not drawn) [Example 5N]	10 to 1000 nM	> 100 µg/mL	185 to 186 °C
CC(C)(C)CCN1C(=O)N(CCC(C)(C)C)C(Cc2ccccc2)C(O)C(O)C1Cc1ccccc1 (stereo not drawn) [Example 3P]	10 to 1000 nM	> 100 µg/mL	242 to 245 °C
O=C1N(Cc2cccc(C=NO)c2)C(Cc2ccccc2)C(O)C(O)C(Cc2ccccc2)N1Cc1cccc(C=NO)c1 (stereo not drawn) [Example 6C]	< 10 nM	< 10 µg/mL	185 to 189 °C
O=C1N(Cc2cccc(Br)c2)C(Cc2ccccc2)C(O)C(O)C(Cc2ccccc2)N1Cc1cccc(Br)c1 (stereo not drawn) [Example 6ZE]	< 10 nM	< 10 µg/mL	210.7 °C
C=CCOc1cccc(CN2C(=O)N(Cc3cccc(OCC=C)c3)C(Cc3ccccc3)C(O)C(O)C2Cc2ccccc2)c1 (stereo not drawn) [Example 5L]	< 10 nM	> 100 µg/mL	170 to 172 °C
O=C1N(Cc2ccccc2)C(Cc2ccccc2)C(O)C(O)C(Cc2ccccc2)N1Cc1ccc2ccccc2c1 (stereo not drawn) [Example 4M]	< 10 nM	< 10 µg/mL	90 to 92 °C
O=C1N(Cc2ccc(OCc3ccccc3)cc2)C(Cc2ccccc2)C(O)C(O)C(Cc2ccccc2)N1Cc1ccc(OCc2ccccc2)cc1 (stereo not drawn) [Example 5P]	> 1000 nM	> 100 µg/mL	80 to 81 °C
O=C1N(Cc2cccnc2)C(Cc2ccccc2)C(O)C(O)C(Cc2ccccc2)N1Cc1ccc2ccccc2c1 (stereo not drawn) [Example 5H]	< 10 nM	< 10 µg/mL	94 to 96 °C
CCCCN1C(=O)N(Cc2ccccc2)C(Cc2ccccc2)C(O)C(O)C1Cc1ccccc1 (stereo not drawn) [Example 3V]	< 10 nM	< 10 µg/mL	89 to 91 °C
O=C1N(Cc2ccc(O)cc2)C(Cc2ccccc2)C(O)C(O)C(Cc2ccccc2)N1Cc1ccc(O)cc1 (stereo not drawn) [Example 5R]	< 10 nM	< 10 µg/mL	115 to 117 °C
N#Cc1ccc(CN2C(=O)N(Cc3ccc(C#N)cc3)C(Cc3ccccc3)C(O)C(O)C2Cc2ccccc2)cc1 (stereo not drawn) [Example 5W]	< 10 nM	< 10 µg/mL	140 to 143 °C
O=C1N(Cc2ccc(-c3ccccc3)cc2)C(Cc2ccccc2)C(O)C(O)C(Cc2ccccc2)N1Cc1ccc(-c2ccccc2)cc1 (stereo not drawn) [Example 4R]	10 to 1000 nM		109 to 110 °C
N#Cc1cccc(CN2C(=O)N(Cc3cccc(C#N)c3)C(Cc3ccccc3)C(O)C(O)C2Cc2ccccc2)c1 (stereo not drawn) [Example 4P]	< 10 nM	< 10 µg/mL	225 to 227 °C
O=Cc1cccc(CN2C(=O)N(Cc3cccc(C=O)c3)C(Cc3ccccc3)C(O)C(O)C2Cc2ccccc2)c1 (stereo not drawn) [Example 5V]	< 10 nM	< 10 µg/mL	175 to 176 °C
C=CCOc1cccc(CN2C(=O)N(Cc3cccc(O)c3)C(Cc3ccccc3)C(O)C(O)C2Cc2ccccc2)c1 (stereo not drawn) [Example 5M]	< 10 nM	< 10 µg/mL	78 to 79 °C
O=C1N(Cc2c(F)c(F)c(F)c(F)c2F)C(Cc2ccccc2)C(O)C(O)C(Cc2ccccc2)N1Cc1c(F)c(F)c(F)c(F)c1F (stereo not drawn) [Example 4J]	> 1000 nM	< 10 µg/mL	193 to 195 °C
C=CCN1C(=O)N(Cc2ccc3ccccc3c2)C(Cc2ccccc2)C(O)C(O)C1Cc1ccccc1 (stereo not drawn) [Example 4S]	< 10 nM	< 10 µg/mL	72 to 74 °C
